Calls of active or inactive are those of the source.
Assays:
[1] = molecular target: X-box-binding protein 1 (Homo sapiens, UniProt P17861); format: functional, Cricetulus griseus;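 note: confirmatory dose-response counter-screen serving a CHOP assay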
[2] = LGR2 antagonists, dose response, cell-based, HEK293, CRE-luciferase reporter, cherry pick, set 2 (AID 743343); format: functional;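 note: transfected cells were stimulated with diluted bursicon conditioned medium after compound addition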
[3] = HEK293 cell cytotoxicity, dose response, cytotoxicity control, plate reader, cherry-picked samples (AID 743446); format: functional, cell-based
[4] = HepG2 cell cytotoxicity, dose response, cytotoxicity control for Shn3 inhibitor project, CellTiter-Glo, cherry-picked (AID 624134); format: functional, cell-based
[5] = NIH-3T3 fibroblast cytotoxicity, dose response, cytotoxicity control, cell-based, fluorescence, Alamar Blue, secondary assay (AID 2327); format: functional;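 note: NIH-3T3 mouse fibroblasts cultured with fluconazole at 8 µg/mL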
[6] = molecular target: T1, Ubiquitin-conjugating enzyme E2 N (Homo sapiens, UniProt P61088); format: functional
T1 sequence (P61088 whole entry): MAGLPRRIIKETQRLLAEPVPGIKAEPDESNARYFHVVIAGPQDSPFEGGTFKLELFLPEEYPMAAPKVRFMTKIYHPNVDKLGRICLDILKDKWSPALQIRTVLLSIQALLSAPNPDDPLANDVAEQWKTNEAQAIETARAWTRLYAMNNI

[7] = molecular target: T2, G-protein coupled receptor 55 (Homo sapiens, UniProt Q9Y2T6); assay: GPR55 antagonists blocking LPI-driven arrestin recruitment, primary screen, imaging, U2OS, beta-arrestin-GFP, LPI agonist (AID 2013); format: functional;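 note: antagonist potency measured as reduced agonist-driven arrestin aggregation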
T2 sequence (Q9Y2T6 whole entry): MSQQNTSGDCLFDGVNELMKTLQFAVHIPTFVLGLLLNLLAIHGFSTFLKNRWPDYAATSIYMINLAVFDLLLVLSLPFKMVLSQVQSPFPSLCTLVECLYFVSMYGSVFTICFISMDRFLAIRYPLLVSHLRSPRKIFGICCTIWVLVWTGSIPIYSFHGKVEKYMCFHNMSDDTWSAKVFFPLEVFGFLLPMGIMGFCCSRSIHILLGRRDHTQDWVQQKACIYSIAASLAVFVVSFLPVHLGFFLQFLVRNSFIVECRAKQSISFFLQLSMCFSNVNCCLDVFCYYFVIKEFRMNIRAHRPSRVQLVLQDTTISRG

[8] = cytotoxicity toward NIH3T3 fibroblasts, dose response, counter-screen, cell-based, ATP luminescence, mouse fibroblasts (AID 2010); format: functional;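 note: cells exposed to compound for about 90 hours before reading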
[9] = system: INS1; assay: beta cell apoptosis inhibitors, cytokine rescue, dose response, luminescence, retest (AID 449756); format: functional, cell-based; conditions: Rattus norvegicus;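 note: cell death triggered by IL-1 beta plus TNF-alpha plus IFN-gamma mixture; protective hits raise ATP signal compared with cytokine alone wells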
[10] = HepG2 cell cytotoxicity, dose response, cytotoxicity control, plate reader, cherry-pick, antagonist series (AID 743416); format: functional, cell-based
[11] = A549 cell cytotoxicity, dose response, cytotoxicity control, plate reader, cherry-pick, antagonist series (AID 743412); format: functional, cell-based
[12] = MC4R antagonists, dose response, counter-screen for LGR2 antagonist project, cell-based, plate reader, cherry pick (AID 743444); format: functional;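 note: transfected HEK 293 cells stimulated with alpha-MSH peptide; potency of inhibitors of the alpha-MSH evoked signal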
[13] = molecular target: DNA damage-inducible transcript 3 protein (Mus musculus, UniProt P35639); format: functional, Cricetulus griseus
[14] = cells
[15] = inhibitors of intracellular T. cruzi replication, confirmation, NIH3T3 host cells, beta-gal luminescence (AID 2044); format: functional, cell-based;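 note: intracellular parasites grown in NIH/3T3 mouse fibroblasts as host cells; luminescent beta-galactosidase reporter signal from transgenic T. cruzi replicating inside host cells; inhibitors lower the luminescence signal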
[16] = C. albicans growth with fluconazole, confirmation, fluorescence, retest (AID 2467); format: functional, cell-based
[17] = control 3'UTR Renilla luciferase suppression, dose response, counter-screen for Shn3 inhibitor project, cell-based, Clone20-Shn3RL, cherry-picked (AID 624133); format: functional
[18] = Shn3 3'UTR reporter inhibitors, dose response, cell-based, Clone20 osteoblasts, firefly luciferase, cherry-picked (AID 624132); format: functional;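 note: firefly luciferase luminescence from reporter carrying the Shn3 3'UTR in osteoblasts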
[19] = molecular target: T3, Coagulation factor XII (Homo sapiens, UniProt P00748); format: functional
T3 sequence (P00748 20-372 limits assumed): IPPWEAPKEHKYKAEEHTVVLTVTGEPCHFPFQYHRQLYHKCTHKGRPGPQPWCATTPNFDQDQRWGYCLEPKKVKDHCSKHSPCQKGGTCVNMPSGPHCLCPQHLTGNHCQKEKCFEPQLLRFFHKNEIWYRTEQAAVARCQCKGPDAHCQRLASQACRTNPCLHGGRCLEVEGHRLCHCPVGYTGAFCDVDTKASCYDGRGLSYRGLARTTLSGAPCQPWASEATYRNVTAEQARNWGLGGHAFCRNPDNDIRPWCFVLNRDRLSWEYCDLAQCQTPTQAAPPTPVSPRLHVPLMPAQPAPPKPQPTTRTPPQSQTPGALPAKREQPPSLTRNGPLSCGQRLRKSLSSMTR
T3 sequence (P00748 373-615 limits assumed): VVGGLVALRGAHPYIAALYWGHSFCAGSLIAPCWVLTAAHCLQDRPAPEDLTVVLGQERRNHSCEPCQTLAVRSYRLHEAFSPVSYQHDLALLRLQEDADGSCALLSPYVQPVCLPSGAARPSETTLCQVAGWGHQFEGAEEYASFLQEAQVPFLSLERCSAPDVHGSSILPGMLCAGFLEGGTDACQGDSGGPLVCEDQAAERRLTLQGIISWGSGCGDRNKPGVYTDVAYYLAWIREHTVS

[20] = Vero E6 cell cytotoxicity, dose response, cytotoxicity control for non-replicating M. tuberculosis project, secondary assay (AID 492998); format: functional, VeroE6; conditions: Vero C1008
[21] = molecular target: T4, Carboxy-terminal domain RNA polymerase II polypeptide A small phosphatase 1 (Homo sapiens, UniProt Q9GZU7); assay: inhibitors of CTDSP1, concentration-response testing, biochemical assay, absorbance-based, actives from ultra-high-throughput screening (AID 540297); format: functional
T4 sequence (Q9GZU7 whole entry): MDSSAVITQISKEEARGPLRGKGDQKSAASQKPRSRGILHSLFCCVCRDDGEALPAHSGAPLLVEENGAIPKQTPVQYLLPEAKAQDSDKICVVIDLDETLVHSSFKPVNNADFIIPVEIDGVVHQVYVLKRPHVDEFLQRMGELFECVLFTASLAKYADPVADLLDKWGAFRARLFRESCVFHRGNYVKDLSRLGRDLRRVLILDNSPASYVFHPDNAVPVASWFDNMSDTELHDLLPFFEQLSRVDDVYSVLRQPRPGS

[22] = molecular target: E3 ubiquitin-protein ligase XIAP (Homo sapiens, UniProt P98170); assay: Counter Screen using XIAP-Bir3 for Chemical Antagonists of Bir1/2 domains of IAP-family anti-apoptotic proteins. [Related pubchem assays (depositor defined):AID1018, AID1449, AID1514, AID1638, AID1749, AID1750, AID488957, AID488963]
Sequence of E3 ubiquitin-protein ligase XIAP (P98170 whole entry): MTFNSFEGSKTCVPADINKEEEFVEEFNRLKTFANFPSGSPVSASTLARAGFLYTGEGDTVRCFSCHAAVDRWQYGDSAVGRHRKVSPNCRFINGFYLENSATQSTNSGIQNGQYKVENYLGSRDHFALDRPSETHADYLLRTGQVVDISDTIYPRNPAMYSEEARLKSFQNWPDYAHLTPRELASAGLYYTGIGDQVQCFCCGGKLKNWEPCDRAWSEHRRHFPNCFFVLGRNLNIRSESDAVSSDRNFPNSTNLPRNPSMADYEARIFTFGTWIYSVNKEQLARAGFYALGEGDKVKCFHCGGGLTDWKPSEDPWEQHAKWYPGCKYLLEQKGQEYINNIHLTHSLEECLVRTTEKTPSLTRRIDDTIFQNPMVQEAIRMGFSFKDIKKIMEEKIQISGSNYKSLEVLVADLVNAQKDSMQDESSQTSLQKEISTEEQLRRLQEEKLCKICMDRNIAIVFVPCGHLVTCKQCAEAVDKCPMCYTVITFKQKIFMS

[23] = molecular target: T5, Bcl-2-related protein A1 (Mus musculus, UniProt Q07440); format: functional;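 note: confirmatory dose–response counterscreen on Bfl-1, used to check hits from a UBC13 polyubiquitin inhibitor campaign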
T5 sequence (Q07440 whole entry): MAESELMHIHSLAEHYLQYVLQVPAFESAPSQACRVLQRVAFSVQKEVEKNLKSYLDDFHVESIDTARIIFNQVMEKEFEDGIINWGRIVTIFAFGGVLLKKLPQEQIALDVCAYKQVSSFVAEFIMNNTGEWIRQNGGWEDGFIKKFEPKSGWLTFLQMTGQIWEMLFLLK

[24] = molecular target: T1, Ubiquitin-conjugating enzyme E2 N; format: functional; remark: listed apart in the source
[25] = molecular target: T6, Kappa-type opioid receptor (Homo sapiens, UniProt P41145); assay: SAR analysis of Antagonists of the Kappa Opioid Receptor (KOR) using an Image-Based Assay - Set 3. [Related pubchem assays (depositor defined):AID1777, AID1785]; format: functional
T6 sequence (P41145 whole entry): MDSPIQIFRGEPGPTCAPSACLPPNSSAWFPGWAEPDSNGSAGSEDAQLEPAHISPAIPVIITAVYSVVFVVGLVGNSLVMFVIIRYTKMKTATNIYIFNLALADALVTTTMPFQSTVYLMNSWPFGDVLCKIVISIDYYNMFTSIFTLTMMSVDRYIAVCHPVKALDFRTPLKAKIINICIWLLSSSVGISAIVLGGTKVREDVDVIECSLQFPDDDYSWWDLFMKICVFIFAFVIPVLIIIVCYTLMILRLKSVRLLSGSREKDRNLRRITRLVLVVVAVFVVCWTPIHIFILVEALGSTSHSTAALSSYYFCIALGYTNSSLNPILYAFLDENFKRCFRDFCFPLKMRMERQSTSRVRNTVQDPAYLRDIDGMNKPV

[26] = molecular target: T6, Kappa-type opioid receptor; assay: SAR analysis of small molecule antagonists of the kappa opioid receptor via a luminescent beta-arrestin assay - Set 3. [Related pubchem assays (depositor defined):AID1777, AID1778, AID1785, AID1786, AID1966, AID2133, AID2136, AID2285, AID2495]; format: functional
[27] = molecular target: Mu-type opioid receptor (Homo sapiens, UniProt P35372); assay: SAR Analysis of Antagonists of the MOR Receptor using an Image-Based Assay - Set 3. [Related pubchem assays (depositor defined):AID1777, AID1785, AID1786, AID1966, AID2133, AID2136, AID2284, AID2285, AID2420]; format: functional
[28] = molecular target: Delta-type opioid receptor (Homo sapiens, UniProt P41143); assay: SAR Analysis of Antagonists of the DOR Receptor using an Image-Based Assay - Set 3. [Related pubchem assays (depositor defined):AID1777, AID1785]; format: functional;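 note: U2OS cells expressing DOR1 and beta-arrestin GFP stimulated with 100 nM SNC80; imaging of GFP-tagged beta-arrestin moving into spots after receptor activation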
[29] = molecular target: T7, Tyrosine-protein phosphatase non-receptor type 7 (Homo sapiens, UniProt P35236); assay: redox-dependent HePTP inhibition, mechanism study, biochemical, fluorescence (AID 2068); format: functional
T7 sequence (P35236 whole entry): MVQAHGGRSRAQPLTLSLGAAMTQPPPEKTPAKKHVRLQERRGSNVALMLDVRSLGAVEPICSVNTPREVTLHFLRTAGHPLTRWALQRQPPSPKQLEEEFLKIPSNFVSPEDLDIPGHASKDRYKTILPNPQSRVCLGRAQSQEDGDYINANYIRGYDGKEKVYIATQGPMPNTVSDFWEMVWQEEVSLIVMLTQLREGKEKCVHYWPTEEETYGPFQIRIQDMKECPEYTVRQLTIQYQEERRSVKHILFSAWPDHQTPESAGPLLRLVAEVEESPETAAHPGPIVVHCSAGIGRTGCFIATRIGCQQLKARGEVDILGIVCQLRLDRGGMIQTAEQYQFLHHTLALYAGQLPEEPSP

[30] = molecular target: T8, Dual specificity protein phosphatase 6 (Rattus norvegicus, UniProt Q64346); format: functional;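 note: confirmatory in vitro dose-response testing of MKP-3 inhibition; recombinant His-tagged MKP-3 made in E. coli BL21 with OMFP substrate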
T8 sequence (Q64346 whole entry): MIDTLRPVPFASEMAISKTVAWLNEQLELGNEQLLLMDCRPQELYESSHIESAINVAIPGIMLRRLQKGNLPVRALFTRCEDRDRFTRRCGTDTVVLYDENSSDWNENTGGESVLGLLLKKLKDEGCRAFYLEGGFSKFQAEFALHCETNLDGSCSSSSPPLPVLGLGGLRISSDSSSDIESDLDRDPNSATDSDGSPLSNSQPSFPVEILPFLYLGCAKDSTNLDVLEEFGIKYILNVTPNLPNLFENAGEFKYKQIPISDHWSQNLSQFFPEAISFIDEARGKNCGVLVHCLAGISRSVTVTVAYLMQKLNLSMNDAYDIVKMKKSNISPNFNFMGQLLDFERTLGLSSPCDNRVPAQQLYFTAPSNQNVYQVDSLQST

[31] = molecular target: Dual specificity protein phosphatase 3 (Homo sapiens, UniProt P51452); assay: SAR VHR1 Fluorescent Assay for In Vitro dose response studies Set 2. [Related pubchem assays (depositor defined):AID1654, AID1661, AID1878]; format: functional
[32] = molecular target: Integrin alpha-4 (Homo sapiens, UniProt P13612); assay: VLA-4 integrin allosteric ligands, SAR follow-up, cell-based, LIBS antibody binding, flow cytometry (AID 488791); format: functional
Sequence of Integrin alpha-4 (P13612 whole entry): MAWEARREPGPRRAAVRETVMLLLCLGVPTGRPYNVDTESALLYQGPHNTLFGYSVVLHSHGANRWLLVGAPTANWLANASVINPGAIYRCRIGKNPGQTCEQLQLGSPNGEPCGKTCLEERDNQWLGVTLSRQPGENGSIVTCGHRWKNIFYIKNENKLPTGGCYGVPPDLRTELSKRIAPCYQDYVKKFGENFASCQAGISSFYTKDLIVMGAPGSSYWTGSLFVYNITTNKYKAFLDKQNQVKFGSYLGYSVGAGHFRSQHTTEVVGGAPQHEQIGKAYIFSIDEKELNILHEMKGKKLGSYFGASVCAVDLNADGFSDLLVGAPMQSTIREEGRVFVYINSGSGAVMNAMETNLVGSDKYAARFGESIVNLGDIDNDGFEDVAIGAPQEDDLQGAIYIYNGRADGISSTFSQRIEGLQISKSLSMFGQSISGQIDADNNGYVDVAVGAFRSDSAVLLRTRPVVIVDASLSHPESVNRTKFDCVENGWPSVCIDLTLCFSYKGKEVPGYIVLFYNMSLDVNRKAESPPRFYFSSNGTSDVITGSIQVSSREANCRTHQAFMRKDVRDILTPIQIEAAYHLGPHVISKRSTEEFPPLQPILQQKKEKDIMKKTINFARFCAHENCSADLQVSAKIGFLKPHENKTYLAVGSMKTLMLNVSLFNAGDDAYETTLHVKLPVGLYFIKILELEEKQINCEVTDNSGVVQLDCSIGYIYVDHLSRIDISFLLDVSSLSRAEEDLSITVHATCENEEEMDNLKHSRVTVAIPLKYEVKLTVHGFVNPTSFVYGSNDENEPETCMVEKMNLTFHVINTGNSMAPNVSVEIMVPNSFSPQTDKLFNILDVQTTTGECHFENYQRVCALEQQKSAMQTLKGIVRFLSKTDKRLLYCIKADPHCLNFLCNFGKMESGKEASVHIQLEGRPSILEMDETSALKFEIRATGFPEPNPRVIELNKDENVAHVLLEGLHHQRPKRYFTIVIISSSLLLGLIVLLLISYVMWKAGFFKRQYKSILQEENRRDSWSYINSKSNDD

[33] = molecular target: Protein-tyrosine kinase 2-beta (Homo sapiens, UniProt Q14289);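 note: potency of inhibitors of PYK2 kinase phosphorylation of poly-GT substrate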
Sequence of Protein-tyrosine kinase 2-beta (Q14289 whole entry): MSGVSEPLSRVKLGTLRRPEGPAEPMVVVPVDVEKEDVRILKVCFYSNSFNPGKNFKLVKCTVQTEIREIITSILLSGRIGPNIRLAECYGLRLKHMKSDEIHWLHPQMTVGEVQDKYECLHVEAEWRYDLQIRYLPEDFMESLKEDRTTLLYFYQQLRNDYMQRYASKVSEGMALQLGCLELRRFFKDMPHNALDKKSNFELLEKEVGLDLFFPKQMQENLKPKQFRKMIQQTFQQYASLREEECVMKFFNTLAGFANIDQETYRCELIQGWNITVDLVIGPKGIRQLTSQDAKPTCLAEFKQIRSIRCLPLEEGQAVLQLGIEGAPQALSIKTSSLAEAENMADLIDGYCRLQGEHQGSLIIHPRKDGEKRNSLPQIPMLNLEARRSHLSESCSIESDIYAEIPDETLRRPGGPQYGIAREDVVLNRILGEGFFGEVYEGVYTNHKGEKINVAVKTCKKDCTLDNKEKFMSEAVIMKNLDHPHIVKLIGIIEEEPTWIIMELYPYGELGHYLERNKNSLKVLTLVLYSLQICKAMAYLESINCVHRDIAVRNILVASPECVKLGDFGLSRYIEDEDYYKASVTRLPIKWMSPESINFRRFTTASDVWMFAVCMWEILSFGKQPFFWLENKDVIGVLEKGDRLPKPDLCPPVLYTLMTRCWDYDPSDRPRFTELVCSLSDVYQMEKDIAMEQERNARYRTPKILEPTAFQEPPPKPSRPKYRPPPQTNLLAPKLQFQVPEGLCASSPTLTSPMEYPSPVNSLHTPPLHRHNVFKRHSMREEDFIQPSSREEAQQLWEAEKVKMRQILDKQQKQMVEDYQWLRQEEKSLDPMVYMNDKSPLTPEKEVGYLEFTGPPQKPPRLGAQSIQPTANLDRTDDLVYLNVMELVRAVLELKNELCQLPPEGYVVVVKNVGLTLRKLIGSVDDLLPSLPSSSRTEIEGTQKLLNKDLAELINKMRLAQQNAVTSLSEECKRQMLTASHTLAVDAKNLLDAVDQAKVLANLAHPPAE

[34] = growth suppression of beta-catenin-knockout colon cells, dose response, cell-based, HCT116, human colon tumor (AID 1045); format: functional;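 note: HCT116 colon tumor cells with beta catenin knocked out; cells exposed to compound for 60 hours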
[35] = molecular target: Sphingosine 1-phosphate receptor 4 (Homo sapiens, UniProt O95977); assay: Late-stage fluorescence dose response cell-based assay to identify agonists of the Sphingosine 1-Phosphate Receptor 4 (S1P4): purchased compounds EC50. [Related pubchem assays (depositor defined):AID1509, AID1523, AID1563, AID1686, AID1701, AID1801]; format: functional
[36] = molecular target: T9, Cannabinoid receptor 1 (Homo sapiens, UniProt P21554); assay: SAR analysis of agonists of the Cannabinoid Receptor 1 using an Image-Based Assay - Set 3. [Related pubchem assays (depositor defined):AID1961, AID1965]; format: functional
T9 sequence (P21554 whole entry): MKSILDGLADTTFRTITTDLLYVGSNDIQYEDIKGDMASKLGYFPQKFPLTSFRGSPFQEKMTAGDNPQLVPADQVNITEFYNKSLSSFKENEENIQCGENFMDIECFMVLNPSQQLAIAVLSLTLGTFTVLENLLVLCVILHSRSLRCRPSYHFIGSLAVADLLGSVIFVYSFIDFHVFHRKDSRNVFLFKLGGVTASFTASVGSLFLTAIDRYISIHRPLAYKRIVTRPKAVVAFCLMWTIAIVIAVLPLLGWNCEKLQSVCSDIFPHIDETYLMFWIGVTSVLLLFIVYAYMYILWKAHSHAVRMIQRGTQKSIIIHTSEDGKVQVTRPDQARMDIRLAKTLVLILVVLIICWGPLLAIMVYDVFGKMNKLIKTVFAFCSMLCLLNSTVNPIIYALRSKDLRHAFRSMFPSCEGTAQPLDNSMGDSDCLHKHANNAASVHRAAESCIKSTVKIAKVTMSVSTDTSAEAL

[37] = molecular target: T10, G-protein coupled receptor 35 (Homo sapiens, UniProt Q9HC97); assay: SAR analysis of Agonists of the GPR35 Receptor using an Image-Based Assay - Set 3. [Related pubchem assays (depositor defined):AID1961, AID1965]; format: functional
T10 sequence (Q9HC97 whole entry): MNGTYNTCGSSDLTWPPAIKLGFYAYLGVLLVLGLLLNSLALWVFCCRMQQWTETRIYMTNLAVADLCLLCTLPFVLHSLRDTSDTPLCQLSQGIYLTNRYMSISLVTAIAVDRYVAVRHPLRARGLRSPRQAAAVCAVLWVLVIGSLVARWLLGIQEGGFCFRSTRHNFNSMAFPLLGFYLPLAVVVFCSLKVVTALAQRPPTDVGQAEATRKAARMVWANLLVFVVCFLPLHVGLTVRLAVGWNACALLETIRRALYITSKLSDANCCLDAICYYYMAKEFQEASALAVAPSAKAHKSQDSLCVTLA

[38] = molecular target: T11, Cannabinoid receptor 2 (Homo sapiens, UniProt P34972); assay: SAR analysis of antagonists of the Cannabinoid Receptor 2 using an Image-Based Assay - Set 2. [Related pubchem assays (depositor defined):AID1961, AID1965]; format: functional
T11 sequence (P34972 whole entry): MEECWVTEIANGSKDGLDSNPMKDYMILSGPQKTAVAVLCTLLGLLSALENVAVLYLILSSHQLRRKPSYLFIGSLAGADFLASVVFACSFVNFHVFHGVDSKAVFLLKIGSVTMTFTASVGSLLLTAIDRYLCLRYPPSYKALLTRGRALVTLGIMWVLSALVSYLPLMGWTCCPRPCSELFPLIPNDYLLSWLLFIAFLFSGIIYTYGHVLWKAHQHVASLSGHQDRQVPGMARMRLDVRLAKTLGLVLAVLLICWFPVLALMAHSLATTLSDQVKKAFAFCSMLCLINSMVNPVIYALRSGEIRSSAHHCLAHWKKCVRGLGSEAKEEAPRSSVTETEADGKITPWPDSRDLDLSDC

[39] = molecular target: T11, Cannabinoid receptor 2; assay: SAR analysis of agonists of the Cannabinoid Receptor 2 using an Image-Based Assay - Set 2. [Related pubchem assays (depositor defined):AID1961, AID1965]; format: functional
[40] = molecular target: T9, Cannabinoid receptor 1; assay: SAR analysis of antagonists of the Cannabinoid Receptor 1 using an Image-Based Assay - Set 3. [Related pubchem assays (depositor defined):AID1961, AID1965]; format: functional
[41] = molecular target: T2, G-protein coupled receptor 55; assay: SAR analysis of selective Agonists of GPR55 using an Image-Based Assay - Set 2. [Related pubchem assays (depositor defined):AID1961, AID1965]; format: functional
[42] = molecular target: T10, G-protein coupled receptor 35; assay: SAR analysis of Antagonists of the GPR35 Receptor using an Image-Based Assay - Set 4. [Related pubchem assays (depositor defined):[…]]; format: functional
[43] = molecular target: T3, Coagulation factor XII; assay: Factor XIIa Dose Response Confirmation from Single Well HTS. [Related pubchem assays (depositor defined):AID701]; format: functional

Cc1ccc(Nc2nc(NCc3ccco3)c3ccccc3n2)cc1.Cl
Absolute IC50 (XBP1) [1]: 10 µM | AC50 [2]: 9.43 µM (active) | AC50 [3]: 16.1 µM (active) | AC50 [4]: 12.6 µM (active) | EC50 [5]: > 160 µM (inconclusive) | IC50 [6]: > 20 µM (inactive) | IC50 [7]: 5.21 µM (active) | EC50 [8]: > 30 µM (not active) | AC50 [9]: 3.65 µM (active) | AC50 [10]: 7.35 µM (active) | AC50 [11]: 10.9 µM (active) | AC50 [12]: 12.3 µM (active) | Absolute IC50 (CHOP) [13]: 10 µM | EC50 [14]: 0.094 µM (active) | EC50 [15]: < 0.1 µM (active) | EC50 [16]: 3.24 µM (active) | AC50 [17]: 3.31 µM (active) | AC50 [18]: 9.84 µM (active)

CCCCOC(=O)c1ccc(NC(=O)C(=O)NCc2ccco2)cc1
IC50 [19]: > 50 µM (inactive)

N=C(NOC(=O)c1cccc2ccccc12)c1cccnc1
CC50 [20]: 15 µM (active)

Cc1coc2c(C)c3oc(=O)c(CCC(=O)N[C@@H](C)C(=O)N[C@@H](Cc4ccccc4)C(=O)O)c(C)c3cc12
IC50 [21]: 3.6 µM (active) | IC50 [22]: > 20 µM (inactive)

CCCCn1c(=O)[nH]c(=O)c2c1nc(-c1ccc(C#N)cc1)n2C1CCCC1
IC50 [23]: > 20 µM (inactive) | IC50 [6]: 18.7 µM (active) | IC50 [24]: 1.99 µM (active)

CCc1ccc(S(=O)(=O)NCc2ccc(C(=O)NCCN3Cc4ccccc4C3)cc2)cc1
IC50 [25]: > 32 µM (inactive) | IC50 [26]: > 20 µM (inactive) | IC50 [27]: > 32 µM (inactive) | IC50 [28]: > 32 µM (inactive)

O=C(O)c1ccc(C=c2sc(=CC(=O)c3ccco3)[nH]c2=O)cc1
IC50 [29]: 4.09 µM (active) | IC50 [30]: > 100 µM (inactive) | IC50 [31]: 16.2 µM (active)

O=C(COc1ccc(/C=N/NC(=O)c2cc3ccccc3o2)cc1Cl)Nc1ccccc1
EC50 [32]: 23.4 µM (active) | EC50 [8]: 19.2 µM (active) | IC50 [33]: 2.65 µM (active) | EC50 [15]: 2 µM (active) | EC50 [34]: 191 µM (active)

Cc1ccc(OCc2cc3ccc(C)c(C)c3nc2Cl)c([N+](=O)[O-])n1
EC50 [35]: > 50 µM (inactive)

CCc1cc(C(=O)Nc2cc(S(=O)(=O)N3CCOCC3)ccc2OC)sc1C
EC50 [36]: > 32 µM (inactive) | EC50 [37]: > 32 µM (inactive) | IC50 [38]: > 32 µM (inactive) | EC50 [39]: > 32 µM (inactive) | IC50 [40]: > 32 µM (inactive) | EC50 [41]: 2.22 µM (active) | IC50 [42]: > 32 µM (inactive)

Cc1ccccc1C(=O)/N=c1\sccn1C
IC50 [43]: > 50 µM (inactive)

— ChEMBL document CHEMBL1201862, “PubChem BioAssay data set” (2004)
